According to PubChem BioAssay AID256 (DTP/NCI, 2004):
Values joined by “and” are separate entries in the source; they are usually repeats but may differ in a detail not shown here. Equal values may be shown once. Toxic doses and inconclusive results are not listed. How the source made its calls: active means survival T/C of 150% or more; inactive means T/C below 125% in these data.

Tested on: CD2F1 mice, L1210 leukemia ip, survival T/C
Test: NCI In Vivo Anticancer Drug Screen. Data for tumor model L1210 Leukemia (intraperitoneal) in CD2F1 (CDF1) mice
Conditions: higher = longer survival
Summary of the method: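 Vehicle-treated tumor-bearing mice served as controls (C) for compound-treated mice (T). Reported figure is T divided by C.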

[1] = endpoint: mean survival time, dose: 6.25 mg/kg/injection, schedule: Q01DX009 (ip), vehicle: saline with Tween-80
[2] = endpoint: mean survival time, dose: 12.5 mg/kg/injection, schedule: Q01DX009 (ip), vehicle: saline with Tween-80
[3] = endpoint: mean survival time, dose: 25.0 mg/kg/injection, schedule: Q01DX009 (ip), vehicle: saline with Tween-80
[4] = endpoint: mean survival time, dose: 50.0 mg/kg/injection, schedule: Q01DX009 (ip), vehicle: saline with Tween-80
[5] = endpoint: mean survival time, dose: 100.0 mg/kg/injection, schedule: Q04DX003 (ip), vehicle: saline with Tween-80
[6] = endpoint: mean survival time, dose: 200.0 mg/kg/injection, schedule: Q04DX003 (ip), vehicle: saline with Tween-80
[7] = endpoint: mean survival time, dose: 400.0 mg/kg/injection, schedule: Q04DX003 (ip), vehicle: saline with Tween-80
[8] = endpoint: mean survival time, dose: 100.0 mg/kg/injection, schedule: Q01DX009 (ip), vehicle: saline with Tween-80
[9] = endpoint: mean survival time, dose: 200.0 mg/kg/injection, schedule: Q01DX009 (ip), vehicle: saline with Tween-80

Measured: T/C

Nc1ccc(C(OC(=O)c2cc3ccccc3c(Cc3c(O)c(C(=O)OC(c4ccc(N)cc4)(c4ccc(N)cc4)c4ccc(N)cc4)cc4ccccc34)c2O)(c2ccc(N)cc2)c2ccc(N)cc2)cc1
inactive: endpoint: mean survival time, dose: 0.78 mg/kg/injection, schedule: Q01DX009 (ip), vehicle: saline with Tween-80 100 % of control and 111 % of control | endpoint: mean survival time, dose: 1.56 mg/kg/injection, schedule: Q01DX009 (ip), vehicle: saline with Tween-80 123 % of control and 102 % of control | endpoint: mean survival time, dose: 3.12 mg/kg/injection, schedule: Q01DX009 (ip), vehicle: saline with Tween-80 105 % of control | endpoint: mean survival time, dose: 3.13 mg/kg/injection, schedule: Q01DX009 (ip), vehicle: saline with Tween-80 101 % of control | [1] 104 % of control and 107 % of control | [2] 88 % of control and 110 % of control | [3] 101 % of control

CC[N+](C)(CC)CCNC(=O)C(c1ccccc1)c1ccccc1
inactive: endpoint: mean survival time, dose: 25.0 mg/kg/injection, schedule: Q01DX009 (ip), vehicle: saline 104 % of control | endpoint: mean survival time, dose: 50.0 mg/kg/injection, schedule: Q01DX009 (ip), vehicle: saline 102 % of control | endpoint: mean survival time, dose: 100.0 mg/kg/injection, schedule: Q01DX009 (ip), vehicle: saline 95 % of control

C[N+]([O-])(CCO)Cc1ccccc1 (centres undefined)
inactive: endpoint: mean survival time, dose: 50.0 mg/kg/injection, schedule: Q01DX001 (ip), vehicle: carboxymethylcellulose (CMC) 102 % of control | endpoint: mean survival time, dose: 100.0 mg/kg/injection, schedule: Q01DX001 (ip), vehicle: carboxymethylcellulose (CMC) 112 % of control | endpoint: mean survival time, dose: 200.0 mg/kg/injection, schedule: Q01DX001 (ip), vehicle: carboxymethylcellulose (CMC) 112 % of control | endpoint: mean survival time, dose: 400.0 mg/kg/injection, schedule: Q01DX001 (ip), vehicle: carboxymethylcellulose (CMC) 112 % of control

COc1cc2c[n+](C)c3c4cc5c(cc4ccc3c2cc1OC)OCO5
inactive: endpoint: mean survival time, dose: 1.0 mg/kg/injection, schedule: Q01DX009 (ip), vehicle: other 104 % of control | endpoint: mean survival time, dose: 1.0 mg/kg/injection, schedule: Q01DX009 (ip), vehicle: water 102 % of control and 104 % of control | endpoint: mean survival time, dose: 2.0 mg/kg/injection, schedule: Q01DX009 (ip), vehicle: other 109 % of control | endpoint: mean survival time, dose: 2.0 mg/kg/injection, schedule: Q01DX009 (ip), vehicle: water 117 % of control and 112 % of control | endpoint: mean survival time, dose: 4.0 mg/kg/injection, schedule: Q01DX009 (ip), vehicle: other 104 % of control | endpoint: mean survival time, dose: 4.0 mg/kg/injection, schedule: Q01DX009 (ip), vehicle: water 116 % of control and 120 % of control | [1] 120 % of control | endpoint: mean survival time, dose: 8.0 mg/kg/injection, schedule: Q01DX009 (ip), vehicle: other 115 % of control | endpoint: mean survival time, dose: 8.0 mg/kg/injection, schedule: Q01DX009 (ip), vehicle: water 115 % of control and 121 % of control | endpoint: mean survival time, dose: 8.0 mg/kg/injection, schedule: Q04DX003 (ip), vehicle: water 108 % of control | [2] 114 % of control | endpoint: mean survival time, dose: 16.0 mg/kg/injection, schedule: Q01DX009 (ip), vehicle: other 116 % of control | endpoint: mean survival time, dose: 16.0 mg/kg/injection, schedule: Q01DX009 (ip), vehicle: water 118 % of control and 120 % of control | endpoint: mean survival time, dose: 16.0 mg/kg/injection, schedule: Q04DX003 (ip), vehicle: water 117 % of control | [3] 104 % of control | endpoint: mean survival time, dose: 32.0 mg/kg/injection, schedule: Q04DX003 (ip), vehicle: water 120 % of control | endpoint: mean survival time, dose: 40.0 mg/kg/injection, schedule: Q01DX009 (ip), vehicle: water 115 % of control and 116 % of control | [4] 98 % of control | endpoint: mean survival time, dose: 64.0 mg/kg/injection, schedule: Q04DX003 (ip), vehicle: water 121 % of control | endpoint: mean survival time, dose: 80.0 mg/kg/injection, schedule: Q01DX009 (ip), vehicle: water 103 % of control | endpoint: mean survival time, dose: 128.0 mg/kg/injection, schedule: Q04DX003 (ip), vehicle: water 101 % of control

NCC1OC(n2cnc3c(N)ncnc32)C(O)C1O (centres undefined)
inactive: endpoint: mean survival time, dose: 12.5 mg/kg/injection, schedule: Q01DX005 (ip), vehicle: Klucel (hydroxypropylcellulose) (HPC) 109 % of control | endpoint: mean survival time, dose: 25.0 mg/kg/injection, schedule: Q01DX005 (ip), vehicle: Klucel (hydroxypropylcellulose) (HPC) 107 % of control | endpoint: mean survival time, dose: 50.0 mg/kg/injection, schedule: Q01DX005 (ip), vehicle: Klucel (hydroxypropylcellulose) (HPC) 115 % of control | endpoint: mean survival time, dose: 100.0 mg/kg/injection, schedule: Q01DX005 (ip), vehicle: Klucel (hydroxypropylcellulose) (HPC) 115 % of control

O=C(CCCCl)Oc1ccccc1
inactive: [5] 87 % of control | [6] 87 % of control | [7] 103 % of control

C(=N\Nc1nc2ccccc2s1)/c1ccc(/C=N/Nc2nc3ccccc3s2)cc1
inactive: endpoint: mean survival time, dose: 100.0 mg/kg/injection, schedule: Q04DX003 (ip), vehicle: Klucel (hydroxypropylcellulose) (HPC) 92 % of control | endpoint: mean survival time, dose: 200.0 mg/kg/injection, schedule: Q04DX003 (ip), vehicle: Klucel (hydroxypropylcellulose) (HPC) 92 % of control | endpoint: mean survival time, dose: 400.0 mg/kg/injection, schedule: Q04DX003 (ip), vehicle: Klucel (hydroxypropylcellulose) (HPC) 94 % of control

CC(C)(O)CN
inactive: [3] 95 % of control | [4] 98 % of control | [8] 91 % of control

CCCCC=CC1CCCCC1 (mixture of isomers)
inactive: endpoint: mean survival time, dose: 100.0 mg/kg/injection, schedule: Q04DX003 (ip), vehicle: saline 94 % of control | endpoint: mean survival time, dose: 200.0 mg/kg/injection, schedule: Q04DX003 (ip), vehicle: saline 94 % of control | endpoint: mean survival time, dose: 400.0 mg/kg/injection, schedule: Q04DX003 (ip), vehicle: saline 94 % of control

COc1ccc(/C=N/NC(=O)CNC(=O)Nc2cccc([N+](=O)[O-])c2)cc1
inactive: [4] 89 % of control | [8] 93 % of control | [9] 93 % of control

COc1ccc(C(C)C(OC(=O)c2ccc([N+](=O)[O-])cc2)c2ccccc2)cc1 (centres undefined)
inactive: [8] 94 % of control | [5] 88 % of control | [9] 88 % of control | [6] 97 % of control | endpoint: mean survival time, dose: 400.0 mg/kg/injection, schedule: Q01DX009 (ip), vehicle: saline with Tween-80 103 % of control | [7] 94 % of control

Clc1cc(Cl)c(CBr)cc1CBr
inactive: [2] 91 % of control | [6] 90 % of control

Oc1ccc(CCl)c2cccnc12
inactive: endpoint: median survival time, dose: 12.5 mg/kg/injection, schedule: Q01DX009 (ip), vehicle: saline 102 % of control | endpoint: median survival time, dose: 25.0 mg/kg/injection, schedule: Q01DX009 (ip), vehicle: saline 102 % of control | endpoint: median survival time, dose: 50.0 mg/kg/injection, schedule: Q01DX009 (ip), vehicle: saline 102 % of control | endpoint: median survival time, dose: 100.0 mg/kg/injection, schedule: Q01DX009 (ip), vehicle: saline 95 % of control

Cc1nccc2c1[nH]c1cc(N)ccc12.[Cl][Sn][Cl]
inactive: endpoint: mean survival time, dose: 5.0 mg/kg/injection, schedule: Q01DX009 (ip), vehicle: saline with Tween-80 115 % of control | endpoint: mean survival time, dose: 10.0 mg/kg/injection, schedule: Q01DX009 (ip), vehicle: saline with Tween-80 103 % of control | endpoint: mean survival time, dose: 20.0 mg/kg/injection, schedule: Q01DX009 (ip), vehicle: saline with Tween-80 102 % of control
